# Measured values from patent publication US7494980B2, “Antimicrobial peptide and methods of use thereof” (The United States of America as represented by the …, priority 2003, dated 2009).
# Ends that are not written are not given here.
# Experiments:
# L. salivarius ATCC 29602 = assay: Bactericidal assay (log reduction in viable counts); type: cell-based, Lactobacillus salivarius; settings: isotonic HBSS, 1 h at 37° C.
# Text: (§1) Strains used in Examples 3-6 included ATCC and laboratory strains of different oral bacteria. These included: Actinomyces naeslundii strain T14V-J1, Actinomyces israelii ATCC 10049, Streptococcus mutans strains LT 11 and ATCC 25175, Streptococcus sobrinus ATCC 33478, Streptococcus gordonii strains DL1 and ATCC 51656, Streptococcus sanguis strains SK36 and ATCC 10556, Streptococcus salivarius ATCC 9222, Streptococcus oralis strains 34 and ATCC 35037, Lactobacillus salivarius ATCC 29602, Lactobacillus acidophilus ATCC 4357, and Actinobacillus actinomycetemcomitans ATCC 43718. S. mutans strain LT 11 was kindly provided by Lin Tao, University of Illinois at Chicago, Ill. S. gordonii DLI, S. sanguis SK36, and S. oralis 34 were provided by John Cisar, National Institute of Dental and Craniofacial Research, NIH, Bethesda, Md.
# (§2) The bactericidal assay was performed according to procedures described by Miyasaki et al. (1997, 1998) with a slight modification. […] Susceptibility was determined by examining the log reduction in viability counts of organisms that had been exposed to different concentrations of KSL. […] Bactericidal activity was also expressed as the 99% effective dose (ED99), which is the concentration of the antimicrobial decapeptide at which there is a 2-log or more reduction in c.f.u. […]
# (§3) In addition to the determinations of MICs and MBCs of KSL, log reductions in viable counts of selected oral bacteria caused by KSL were also determined. […] With the exception of Actinobacillus actinomycetemcomitans, for which the assays were performed in 0.01% BHI, bactericidal action of KSL was determined in isotonic HBSS after incubation with the targeted bacteria for 1 h at 37° C. KSL at 6.25 μg ml^−1, which was determined to be the 99% effective dose (ED99), caused more than 2 log reductions in viable counts of the organisms tested, which included L. salivarius ATCC 29602 (FIG. 3a), S. mutans ATCC 25175^T (FIG. 3b), S. gordonii ATCC 51656 (FIG. 3c), and Actinobacillus actinomycetemcomitans ATCC 43718 (FIG. 3d).
# S. mutans ATCC 25175 [1] = assay: In vitro susceptibility (broth microdilution MIC, MBC by spiral-plating); type: cell-based, Streptococcus mutans
# Text: as §1
# Todd-Hewitt broth (THB), brain heart infusion (BHI) broth, Todd-Hewitt agar (THA), trypticase soy agar (TSA), lactobacilli MRS (MRS) broth, Actinomyces broth and Mueller-Hinton broth (MHB) were purchased from Becton Dickinson. Blood agar plates (BAP) were prepared by supplementing TSA with 5% sheep blood (PML Microbiologicals). All cultures, except for Actinobacillus actinomycetemcomitans, S. mitis and Actinomyces israelii, were grown at 37° C. in room air. Actinobacillus actinomycetemcomitans cultures were grown on BAP or in MHB supplemented with 15 μg haemin ml^−1 (Sigma), 15 μg β-nicotinamide adenine dinucleotide (NAD) ml^−1 (Sigma) and 5% yeast extract (Becton Dickinson) at 37° C. in 5% CO2. S. mitis was grown on BAP or in BHI broth at 37° C. in 5% CO2. […]
# (§4) MICs were determined as described by Fuchs et al. (1998) with a slight modification. […] The MIC was defined as the lowest concentration of the peptide that prevented visible turbidity, as measured at 600 nm by using an ELISA reader (Titertek Multiskan MCC/340). […] Minimum bactericidal concentrations (MBCs) were determined by spiral-plating (Spiral Plater Autoplate 4000; Spiral Biotech) 50 μl from each clear well (≧MIC) onto BAP.
# S. sanguis SK36 = assay: as above; type: cell-based, Streptococcus sanguis; settings: 24-48 h
# Text: as §1
# (§5) Todd-Hewitt broth (THB), brain heart infusion (BHI) broth, Todd-Hewitt agar (THA), trypticase soy agar (TSA), lactobacilli MRS (MRS) broth, Actinomyces broth and Mueller-Hinton broth (MHB) were purchased from Becton Dickinson. Blood agar plates (BAP) were prepared by supplementing TSA with 5% sheep blood (PML Microbiologicals). All cultures, except for Actinobacillus actinomycetemcomitans, S. mitis and Actinomyces israelii, were grown at 37° C. in room air. Actinobacillus actinomycetemcomitans cultures were grown on BAP or in MHB supplemented with 15 μg haemin ml^−1 (Sigma), 15 μg β-nicotinamide adenine dinucleotide (NAD) ml^−1 (Sigma) and 5% yeast extract (Becton Dickinson) at 37° C. in 5% CO2. S. mitis was grown on BAP or in BHI broth at 37° C. in 5% CO2. Actinomyces israeilli was grown anaerobically in an anaerobic chamber (Coy Laboratory Products) in a 5% CO2/10% H2/85% N2 atmosphere.
# (§6) MICs were determined as described by Fuchs et al. (1998) with a slight modification. Procedures were based on the National Committee for Clinical Laboratory Standards broth microdilution method. MHB was used as the main assay medium for most of the tested organisms. Freshly grown cultures at exponential phase were used as the inoculum. Bacteria were centrifuged at 4000 r.p.m. for 15 min at 4° C., suspended in 2× concentrated medium and adjusted to 4×106 c.f.u ml−1 in 2× concentrated medium. Aqueous peptide solution (100 μl) was added to each well of a 96-well, flat-bottomed plate (Becton Dickinson). […] The MIC was defined as the lowest concentration of the peptide that prevented visible turbidity, as measured at 600 nm by using an ELISA reader (Titertek Multiskan MCC/340). […] Minimum bactericidal concentrations (MBCs) were determined by spiral-plating (Spiral Plater Autoplate 4000; Spiral Biotech) 50 μl from each clear well (≧MIC) onto BAP.
# S. sanguis ATCC 10556 = assay: as above; type: cell-based, Streptococcus sanguis; settings: 24-48 h
# Text: as §1, §5, §6
# [2] = tested on: Actinobacillus actinomycetemcomitans ATCC 43718; assay: as above; type: cell-based; settings: 4 × 10^7 cells ml^−1, 24-48 h
# Text: as §1, with “Md. […]” for “Md.”
# as §4
# S. gordonii DL1 = assay: as above; type: cell-based, Streptococcus gordonii; settings: 24-48 h
# Text: as §1, §5, §6
# S. gordonii ATCC 51656 = assay: as above; type: cell-based, Streptococcus gordonii; settings: 24-48 h
# Text: as §1, §5, §6
# [3] = tested on: saliva bacteria (facultative anaerobic oral bacteria collected from saliva); assay: In vitro killing of saliva bacteria; type: cell-based; settings: 200 μg KSL ml^−1, 30 min at 37° C., vs PBS
# Description: The killing assay of saliva bacteria was done according to procedures established by Helmerhorst et al. (1999). Unstimulated saliva was collected from four healthy individuals who had refrained from eating for at least 2 hours. The study was approved by the Institutional Review Board of the Walter Reed Army Institute of Research and informed consent and sample donation consent were obtained from all volunteers. Pooled saliva was initially spun at 500 r.p.m. in an Eppendorf centrifuge (model 5810R) for 10 min at 4° C. to remove epithelial cells and mucus. Saliva bacteria were collected by spinning the supernatant at 4000 r.p.m. for 15 min at 4° C. The pellet was washed three times in 10 mM potassium phosphate buffer (PPB) and suspended in the same buffer to give approximately 1.0×10^7 cells ml^−1. Bacterial suspension (250 μl) was mixed with 250 μl peptide to obtain final peptide concentrations of 12.5, 25, 50, 100 and 200 μg ml^−1. After incubation of the mixture at 37° C. for 30 min, cells were spun down to remove KSL, washed once in PBS having a pH of 7.4 and suspended in PBS before spiral-plating 50 μl of the treated and untreated cells in different dilutions on BAP. The negative control was exposed to buffer only. Saliva bacteria exposed to 0.12% aqueous chlorhexidine served as positive controls. […]
# S. mutans ATCC 25175 [4] = assay: Bactericidal assay (log reduction in viable counts); type: cell-based, Streptococcus mutans
# Text: as §1, §2, §3
# [5] = tested on: Actinobacillus actinomycetemcomitans ATCC 43718; assay: as above; type: cell-based
# Text: as §1, §2, §3
# S salivarius ATCC 9222 = assay: In vitro susceptibility (broth microdilution MIC, MBC by spiral-plating); type: cell-based, Streptococcus salivarius; settings: 24-48 h
# Text: as §1, with “Md. […]” for “Md.”
# as §4
# [6] = MHB, 4 × 10^6 cells ml^−1, 37° C.
substance,measurement,setting,value
"KKVVFKVKFK-NH2 [KSL, lys-lys-val-val-phe-lys-val-lys-phe-lys]",ED99 (99% effective dose),L. salivarius ATCC 29602,6.25 µg/mL
same,concentration inhibiting growth effectively,S. mutans ATCC 25175 [1],< 25 µg/mL
same,MIC,"S. mutans ATCC 25175 [1]; MHB, 4 × 10^6 cells ml^−1, 37° C., 24-48 h",6.25 µg/mL
same,MBC,"S. mutans ATCC 25175 [1]; clear MIC wells plated on BAP, 24-48 h",12.5 µg/mL
same,MIC,S. sanguis SK36; [6],25 µg/mL
same,MBC,S. sanguis SK36; clear MIC wells plated on BAP,50 µg/mL
same,MIC,S. sanguis ATCC 10556; [6],25 µg/mL
same,MBC,S. sanguis ATCC 10556; clear MIC wells plated on BAP,100 µg/mL
same,MIC,"[2]; 50% BHI, 5% CO2, 37° C.",100 µg/mL
same,MBC,[2]; clear MIC wells plated on BAP,200 µg/mL
same,MIC,S. gordonii DL1; [6],50 µg/mL
same,MBC,S. gordonii DL1; clear MIC wells plated on BAP,100 µg/mL
same,MIC,S. gordonii ATCC 51656; [6],50 µg/mL
same,MBC,S. gordonii ATCC 51656; clear MIC wells plated on BAP,100 µg/mL
same,log reduction in facultative anaerobes in saliva,[3],1.05 log
same,log reduction in viable counts,"S. mutans ATCC 25175 [4]; 6.25 μg ml^−1, HBSS, FIG. 3b",more than 2 log
same,reduction in viability,S. mutans ATCC 25175 [4]; concentrations of <10 μg ml^−1,> 3 logs
same,ED99 (99% effective dose),"S. mutans ATCC 25175 [4]; isotonic HBSS, 1 h at 37° C.",6.25 µg/mL
same,log reduction in viable counts,"[5]; 6.25 μg ml^−1, 0.01% BHI, FIG. 3d",more than 2 log
same,ED99 (99% effective dose),"[5]; 0.01% BHI, 1 h at 37° C.",6.25 µg/mL
same,reduction in viability,[5]; concentrations of <10 μg ml^−1,> 3 logs
same,MIC,S salivarius ATCC 9222; [6],50 µg/mL
same,MBC,S salivarius ATCC 9222; clear MIC wells plated on BAP,100 µg/mL
